According to PubChem BioAssay AID1963439 (Molecular Pharmacology Branch, DTP, NCI, 2024):

Tested on: NCI-H196 complex spheroids with HUVEC/MSC, growth % T/C
Assay: Anticancer human tumor NCI-H196 cell line growth inhibition [Asc];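 further: spheroids exposed to compound for 7 days before measurement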;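 on viability, T/C: 100% = DMSO vehicle control wells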
Settings: for IC50: curve of first compound; for viability, T/C: stronger effect = lower value
Procedure, shortened: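 Tumor cells were grown as complex spheroids with human endothelial cells (HUVEC) and human mesenchymal stem cells as stroma. Agents were tested alone and in combination, in half-log steps down from the clinical Cmax, or from 10 microM where Cmax was unknown.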

[1] = second compound 0.03 µM, first compound 0.0316 µM
[2] = second compound 0.03 µM, first compound 0.1 µM
[3] = second compound 0.03 µM, first compound 0.316 µM
[4] = second compound 0.03 µM, first compound 1 µM
[5] = second compound 0.0949 µM, first compound 0.0316 µM
[6] = second compound 0.0949 µM, first compound 0.1 µM
[7] = second compound 0.0949 µM, first compound 0.316 µM
[8] = second compound 0.0949 µM, first compound 1 µM
[9] = second compound 0.3 µM, first compound 0.0316 µM
[10] = second compound 0.3 µM, first compound 0.1 µM
[11] = second compound 0.3 µM, first compound 0.316 µM
[12] = second compound 0.3 µM, first compound 1 µM
[13] = second compound 0.949 µM, first compound 0.0316 µM
[14] = second compound 0.949 µM, first compound 0.1 µM
[15] = second compound 0.949 µM, first compound 0.316 µM
[16] = second compound 0.949 µM, first compound 1 µM
[17] = second compound 3 µM, first compound 0.0316 µM
[18] = second compound 3 µM, first compound 0.1 µM
[19] = second compound 3 µM, first compound 0.316 µM
[20] = second compound 3 µM, first compound 1 µM

| Compound | IC50 (second compound 0.03 µM) [nM] | IC50 (second compound 0.0949 µM) [nM] | IC50 (second compound 0.3 µM) [nM] | IC50 (second compound 0.949 µM) [nM] | IC50 (second compound 3 µM) [nM] | viability, T/C [1] [%] | viability, T/C [2] [%] | viability, T/C [3] [%] | viability, T/C [4] [%] | viability, T/C [5] [%] | viability, T/C [6] [%] | viability, T/C [7] [%] | viability, T/C [8] [%] | viability, T/C [9] [%] | viability, T/C [10] [%] | viability, T/C [11] [%] | viability, T/C [12] [%] | viability, T/C [13] [%] | viability, T/C [14] [%] | viability, T/C [15] [%] | also measured |
| --- | --- | --- | --- | --- | --- | --- | --- | --- | --- | --- | --- | --- | --- | --- | --- | --- | --- | --- | --- | --- | --- |
| C=CC(=O)N1CCN(c2nc(=O)n(-c3c(C)ccnc3C(C)C)c3nc(-c4c(O)cccc4F)c(F)cc23)C(C)C1 (stereo not given) + CCN1C(C(=O)NC23CCC(C(=O)O)(CC2)CC3)C(c2cccc(Cl)c2F)C2(C(=O)Nc3cc(Cl)ccc32)C12CCCCC2 | > 10000 | > 10000 | > 10000 | > 10000 | > 10000 | 104 | 105 | 104 | 107 | 111 | 111 | 121 | 112 | 106 | 109 | 108 | 107 | 123 | 110 | 115 | viability, T/C (second compound 0.03 µM, first compound 3.16 µM): 121%; viability, T/C (second compound 0.03 µM, first compound 10 µM): 107%; viability, T/C (second compound 0.0949 µM, first compound 3.16 µM): 106%; viability, T/C (second compound 0.0949 µM, first compound 10 µM): 103%; viability, T/C (second compound 0.3 µM, first compound 3.16 µM): 117%; viability, T/C (second compound 0.3 µM, first compound 10 µM): 119%; viability, T/C [16]: 110%; viability, T/C (second compound 0.949 µM, first compound 3.16 µM): 140%; viability, T/C (second compound 0.949 µM, first compound 10 µM): 110%; viability, T/C [17]: 116%; viability, T/C [18]: 120%; viability, T/C [19]: 115%; viability, T/C [20]: 124%; viability, T/C (second compound 3 µM, first compound 3.16 µM): 135%; viability, T/C (second compound 3 µM, first compound 10 µM): 132% |
| CNC(C)C(=O)NC1CN(S(=O)(=O)c2cccc(S(=O)(=O)N3CCC4CCC(C(=O)NC(c5ccccc5)c5ccccc5)N4C(=O)C(NC(=O)C(C)NC)C3)c2)CCC2CCC(C(=O)NC(c3ccccc3)c3ccccc3)N2C1=O (stereo not given) + CCN1C(C(=O)NC23CCC(C(=O)O)(CC2)CC3)C(c2cccc(Cl)c2F)C2(C(=O)Nc3cc(Cl)ccc32)C12CCCCC2 | < 3.16 | < 3.16 | < 3.16 | 3.18 | < 3.16 | 4.75 | 1.79 | 2.4 | 1.46 | 4.24 | 4.09 | 2.61 | 1.28 | 5.95 | 3.82 | 3.47 | 1.29 | 6.82 | 2.74 | 2.84 | viability, T/C (second compound 0.03 µM, first compound 0.00316 µM): 40.6%; viability, T/C (second compound 0.03 µM, first compound 0.01 µM): 17.9%; viability, T/C (second compound 0.0949 µM, first compound 0.00316 µM): 45.3%; viability, T/C (second compound 0.0949 µM, first compound 0.01 µM): 19.1%; viability, T/C (second compound 0.3 µM, first compound 0.00316 µM): 47.4%; viability, T/C (second compound 0.3 µM, first compound 0.01 µM): 16.6%; viability, T/C (second compound 0.949 µM, first compound 0.00316 µM): 50.4%; viability, T/C (second compound 0.949 µM, first compound 0.01 µM): 18.4%; viability, T/C [16]: 2.2%; viability, T/C (second compound 3 µM, first compound 0.00316 µM): 47.6%; viability, T/C (second compound 3 µM, first compound 0.01 µM): 16.9%; viability, T/C [17]: 4.77%; viability, T/C [18]: 2.4%; viability, T/C [19]: 3.09%; viability, T/C [20]: 1.59% |
